US20260376293A1, “METHODS FOR STUDYING GPR158 PHARMACOLOGY AND IDENTIFICATION OF ITS LIGANDS” (UNIVERSITY OF FLORIDA RESEARCH FOUNDATION, INCORPORATED, priority 2022, published 2026)

Molecular target: T1, GPR158 E271A mutant (Homo sapiens, UniProt Q5T848, E271A)
T1 construct: glycine site in Cache domain
T1 sequence (Q5T848 24-1215 E271A): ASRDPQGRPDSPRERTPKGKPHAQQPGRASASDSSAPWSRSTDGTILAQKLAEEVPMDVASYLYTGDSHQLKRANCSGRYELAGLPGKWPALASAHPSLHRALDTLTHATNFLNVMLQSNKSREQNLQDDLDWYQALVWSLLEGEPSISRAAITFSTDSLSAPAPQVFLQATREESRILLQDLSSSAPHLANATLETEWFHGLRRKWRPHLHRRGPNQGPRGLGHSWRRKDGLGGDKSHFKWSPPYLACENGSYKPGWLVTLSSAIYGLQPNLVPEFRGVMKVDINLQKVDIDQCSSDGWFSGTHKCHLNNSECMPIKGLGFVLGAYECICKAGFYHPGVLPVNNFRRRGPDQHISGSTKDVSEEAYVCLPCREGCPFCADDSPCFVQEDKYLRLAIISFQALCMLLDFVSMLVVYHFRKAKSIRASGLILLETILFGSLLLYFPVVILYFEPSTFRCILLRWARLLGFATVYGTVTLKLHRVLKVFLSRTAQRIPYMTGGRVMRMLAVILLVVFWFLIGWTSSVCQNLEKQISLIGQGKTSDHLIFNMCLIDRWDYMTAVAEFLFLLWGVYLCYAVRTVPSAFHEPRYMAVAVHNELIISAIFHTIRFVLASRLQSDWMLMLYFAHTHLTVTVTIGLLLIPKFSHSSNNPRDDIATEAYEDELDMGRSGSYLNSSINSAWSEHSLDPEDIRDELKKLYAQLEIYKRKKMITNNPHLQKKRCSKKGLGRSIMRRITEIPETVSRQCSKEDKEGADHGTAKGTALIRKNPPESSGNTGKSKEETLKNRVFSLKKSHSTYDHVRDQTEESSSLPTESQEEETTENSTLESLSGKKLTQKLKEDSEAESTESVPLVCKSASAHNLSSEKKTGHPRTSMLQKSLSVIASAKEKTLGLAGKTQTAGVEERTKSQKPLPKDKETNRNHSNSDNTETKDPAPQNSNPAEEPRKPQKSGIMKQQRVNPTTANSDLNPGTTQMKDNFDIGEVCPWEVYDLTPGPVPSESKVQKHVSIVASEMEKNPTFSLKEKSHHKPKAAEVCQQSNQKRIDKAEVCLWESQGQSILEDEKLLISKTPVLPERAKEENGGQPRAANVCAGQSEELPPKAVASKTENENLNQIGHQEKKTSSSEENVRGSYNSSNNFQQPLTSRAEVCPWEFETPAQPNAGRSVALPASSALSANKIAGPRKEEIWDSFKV
Assay: Radioligand binding assay on GPR158 mutant E271A
Source text: FIGS. 11A-11G. Probing Cache domain of GPR158 as a ligand binding site A) Computational docking of glycine into putative ligand binding pocket on GPR158 Cache domain. Glycine and directly interacting residues are shown as sticks. Hydrogen bonds and van der Waals interactions are shown as dotted lines. B) Diagram showing interactions in the docked model of glycine against GPR158 Cache domain. Hydrogen bonds are shown as dashed lines, van der Waals interactions are shown as intersecting semicircles, and the secondary structural context of Ser266 and Tyr269 is shown as an arc. Dagger indicates a residue implicated in glycine binding in 11A. C) Radioligand binding assay of ^3H-glycine in cells expressing GPR158 mutants. Data shown mean±s.e.m. of 3 independent experiments, *p<0.05, ns=p>0.05 one-way ANOVA. D) Functional evaluation of GPR158 mutants in GAP BRET assay. Error bars are mean±s.e.m. of 3 independent experiments in triplicate. *p<0.05, **p<0.01, ***p<0.001, ****p<0.0001, ns=p>0.05, two-way ANOVA Columns with no fill (Ctrl), columns with angled-line fill (Glycine) E) Quantification of glycine inhibitory effect on kGAP normalized to the effect seen with WT receptor. […]
Whole cell binding was performed using cDNA of GPR158-venus or each GPR158-venus mutant or empty pcDNA3.1+ for ctrl cells. […] Finally radioactivity was measured using the liquid scintillation analyzer Tri-Carb 4910 TR.

For `NCC(=O)O` [^3H-glycine, [^3H]-glycine], the “[^3H]-glycine binding” value was “near complete loss”.
